Assay results taken from US5348743A, “Anti-pathogenically effective compositions comprising lytic peptides and hydrolytic enzymes” (priority 1993, dated 1994).
Where two headings read alike, the source gives them in different places.

How the values were obtained:
chitinase [1] = conditions: Burri (1989), average of five ethylene treatments; cited from earlier work
beta-1,3-glucanase [2] = type: biochemical, Phaseolus vulg. L. cv. saxa
Experimental: (§1) Seeds of Phaseolus vulg. L. cv. saxa were grown in vermiculite under a 16 hr light: 8 hr dark regime at 20° C. Twelve day old bean plants were incubated in air-tight plastic chambers with a volume of 0.2 m^3. Control plants were incubated in identical chambers in ethylene-free air. After 48 hours, the primary leaves were harvested and frozen at -20° C.
(§2) 0.6597 kg frozen leaf tissue was homogenized in 0.1M sodium citrate buffer at pH 5.0 (2 ml×g^-1 fresh weight) with a Turmix homogenizer at top speed. The homogenate was centrifuged (25 Min., 11000 g) and 100 ml of the supernatant were used as a crude enzyme preparation. The proteins in the remaining crude extract were precipitated by adding ammonium sulfate to 95% saturation. After centrifugation (30 min., 11000 g) the sediment was redissolved in 100 mM Tris/HCl pH 8.0 and dialyzed against 5 mM Tris/HCl pH 8.0.
Beta-1,3-glucanase activity was measured as described by Dygert et al., Analyt. Biochem., 13:367-374 (1965).

beta-1,3-glucanase [3] = conditions: Burri (1989), average of five ethylene treatments; cited from earlier work
chitinase [4] = type: biochemical, Phaseolus vulg. L. cv. saxa
Experimental: as §1, §2
Chitinase activity was measured as described by Molano et al. (1977).

S. nodorum = assay: Inhibitory effect of lytic peptides and hydrolytic enzymes against S. nodorum (microtiter plates, liquid pea medium, absorbance at 595 nm); type: cell-based, Septoria nodorum
Experimental: Microtiter plates were selected to investigate the inhibitory effect of lytic peptides and hydrolytic enzymes against S. nodorum. Test substances were added to 90 ul liquid pea medium which had been previously inoculated with 2.0×10^4 spores/ml medium of the test pathogen to give a final volume of 100 ul. The blank value of the test substances were determined by adding them to uninoculated liquid pea medium. The plates were evaluated after incubation in a wet chamber at 23° C. on a shaker in the dark for 48 hours.
a. Hydrolytic enzymes were purified from ethylene-treated bean leaves by the procedure described in Example 1.
b. Lytic peptides: The following antimicrobial peptides were tested at 20 ppm, 60 ppm and 200 ppm concentrations:
d. Combinations of test substances: Table 3 illustrates the composition of test solutions which were tested in duplicate/triplicate samples.
e. Evaluation: The growth of the pathogen was recorded by measuring the absorbance of the medium at 595 nm. The average of duplicate/triplicate samples was calculated and the corresponding enzyme blank was subtracted to give the net absorption of the growing mycelium. The inhibitory effect of the test substances used was determined by calculating the growth of the pathogen as a percentage of water control.

C=C [ethylene]
absolute chitinase activity (chitinase [1]): 88.86±6.65 nkatal/ml extract | Specific beta-1,3-glucanase activity (beta-1,3-glucanase [2]): 28.72 | absolute beta-1,3-glucanase activity (beta-1,3-glucanase [2]): 34.21 | induction of beta-1,3-glucanase in bean leaves (beta-1,3-glucanase [2]): strong induction | absolute beta-1,3-glucanase activity (beta-1,3-glucanase [3]): 76.00±6.77 nkatal/ml extract | Specific chitinase activity (chitinase [4]): 45.95 | absolute chitinase activity (chitinase [4]): 54.71 | induction of chitinase in bean leaves (chitinase [4]): strong induction

GIGKFLHSAK KFGKAFVGI MNS [SYNTHETIC PEPTIDE NO. 3]
FUNGAL GROWTH IN PERCENTAGE OF CONTROL (S. nodorum; test solution 5: lytic peptide 20 ppm alone, 48 hours, 23° C.): 80.35 percentage of control | FUNGAL GROWTH IN PERCENTAGE OF CONTROL (S. nodorum; test solution 6: lytic peptide 60 ppm alone, 48 hours, 23° C.): 73.51 percentage of control | FUNGAL GROWTH IN PERCENTAGE OF CONTROL (S. nodorum; test solution 7: lytic peptide 200 ppm alone, 48 hours, 23° C.): 65.96 percentage of control | FUNGAL GROWTH IN PERCENTAGE OF CONTROL (S. nodorum; test solution 12: lytic peptide 20 ppm + chitinase 1/10 c): 68.42 percentage of control | FUNGAL GROWTH IN PERCENTAGE OF CONTROL (S. nodorum; test solution 13: lytic peptide 60 ppm + chitinase 1/10 c): 63.51 percentage of control | FUNGAL GROWTH IN PERCENTAGE OF CONTROL (S. nodorum; test solution 14: lytic peptide 200 ppm + chitinase 1/10 c): 61.75 percentage of control | FUNGAL GROWTH IN PERCENTAGE OF CONTROL (S. nodorum; test solution 15: lytic peptide 20 ppm + chitinase 1/100 c): 77.89 percentage of control | FUNGAL GROWTH IN PERCENTAGE OF CONTROL (S. nodorum; test solution 16: lytic peptide 60 ppm + chitinase 1/100 c): 71.58 percentage of control | FUNGAL GROWTH IN PERCENTAGE OF CONTROL (S. nodorum; test solution 17: lytic peptide 200 ppm + chitinase 1/100 c): 64.21 percentage of control | FUNGAL GROWTH IN PERCENTAGE OF CONTROL (S. nodorum; test solution 18: lytic peptide 20 ppm + beta-1,3-glucanase 1/10 c): 46.67 percentage of control | FUNGAL GROWTH IN PERCENTAGE OF CONTROL (S. nodorum; test solution 19: lytic peptide 60 ppm + beta-1,3-glucanase 1/10 c): 30.88 percentage of control | FUNGAL GROWTH IN PERCENTAGE OF CONTROL (S. nodorum; test solution 20: lytic peptide 200 ppm + beta-1,3-glucanase 1/10 c): 27.89 percentage of control | FUNGAL GROWTH IN PERCENTAGE OF CONTROL (S. nodorum; test solution 21: lytic peptide 20 ppm + beta-1,3-glucanase 1/100 c): 65.26 percentage of control | FUNGAL GROWTH IN PERCENTAGE OF CONTROL (S. nodorum; test solution 22: lytic peptide 60 ppm + beta-1,3-glucanase 1/100 c): 63.51 percentage of control | FUNGAL GROWTH IN PERCENTAGE OF CONTROL (S. nodorum; test solution 23: lytic peptide 200 ppm + beta-1,3-glucanase 1/100 c): 53.68 percentage of control | FUNGAL GROWTH IN PERCENTAGE OF CONTROL (S. nodorum; test solution 24: lytic peptide 20 ppm + chitinase 1/10 c + beta-1,3-glucanase 1/10 c): 9.47 percentage of control | FUNGAL GROWTH IN PERCENTAGE OF CONTROL (S. nodorum; test solution 25: lytic peptide 60 ppm + chitinase 1/10 c + beta-1,3-glucanase 1/10 c): 8.42 percentage of control | FUNGAL GROWTH IN PERCENTAGE OF CONTROL (S. nodorum; test solution 26: lytic peptide 200 ppm + chitinase 1/10 c + beta-1,3-glucanase 1/10 c): 3.86 percentage of control | FUNGAL GROWTH IN PERCENTAGE OF CONTROL (S. nodorum; test solution 27: lytic peptide 20 ppm + chitinase 1/100 c + beta-1,3-glucanase 1/100 c): 40.7 percentage of control | FUNGAL GROWTH IN PERCENTAGE OF CONTROL (S. nodorum; test solution 28: lytic peptide 60 ppm + chitinase 1/100 c + beta-1,3-glucanase 1/100 c): 36.49 percentage of control | FUNGAL GROWTH IN PERCENTAGE OF CONTROL (S. nodorum; test solution 29: lytic peptide 200 ppm + chitinase 1/100 c + beta-1,3-glucanase 1/100 c): 31.23 percentage of control
